From ChEMBL document CHEMBL5131382, “Facile and divergent optimization of chromazonarol enabled the identification of simplified drimane meroterpenoids as novel pharmaceutical leads” (Eur J Med Chem, 2022)

Legend:
Sclerotinia sclerotiorum [1] = assay: Antifungal activity against Sclerotinia sclerotiorum at 150 uM; format: functional
Rhizoctonia solani [2] = assay: Antifungal activity against Rhizoctonia solani at 150 uM; format: functional
Fusarium graminearum = assay: Antifungal activity against Fusarium graminearum at 150 uM; format: functional
Pyricularia oryzae = assay: Antifungal activity against Pyricularia oryzae at 150 uM; format: functional
Phytophthora capsici = assay: Antifungal activity against Phytophthora capsici at 150 uM; format: functional
Sclerotinia sclerotiorum [3] = assay: Antifungal activity against Sclerotinia sclerotiorum; format: functional, organism-based
Rhizoctonia solani [4] = assay: Antifungal activity against Rhizoctonia solani; format: functional, organism-based
HepG2 = assay: Antiproliferative activity against human HepG2 cells assessed as inhibition of cell proliferation incubated for 72 hrs by MTT assay; format: functional, cell-based; settings: HepG2, 72 h
MCF7 = assay: Antiproliferative activity against human MCF7 cells assessed as inhibition of cell proliferation incubated for 72 hrs by MTT assay; format: functional, cell-based; settings: MCF7, 72 h

Row | SMILES | inhibition at 150 µM (Sclerotinia sclerotiorum [1]) [%] | inhibition at 150 µM (Rhizoctonia solani [2]) [%] | inhibition at 150 µM (Fusarium graminearum) [%] | inhibition at 150 µM (Pyricularia oryzae) [%] | inhibition at 150 µM (Phytophthora capsici) [%] | EC50 (Sclerotinia sclerotiorum [3]) [µM] | EC50 (Rhizoctonia solani [4]) [µM] | EC50 (HepG2) [µM] | EC50 (MCF7) [µM]
1 | CC1(C)CCC[C@]2(C)[C@@H](Cc3cc(O)ccc3O)[C@](C)(O)CC[C@@H]12 | 39 | 48 | 39 | 28 | 28 | > 150 | > 150 | > 50 | 50
2 | Cc1cc(O)c(C[C@@H]2[C@@]3(C)CCCC(C)(C)[C@@H]3CC[C@@]2(C)O)c(O)c1 [ALBACONOL] | 72 | 49 | 43 | 7 | 30 | 24.4 | > 150 | 10.4 | 10.1
3 | O=C(Nc1ccccc1-c1ccc(Cl)cc1)c1cccnc1Cl [BOSCALID] | 79 | 93 | 27 | 74 | 23 | 0.75 | 1.62 | – | –
4 | Cc1cc(O)cc(O)c1C[C@@H]1[C@@]2(C)CCCC(C)(C)[C@@H]2CC[C@@]1(C)O | 82 | 92 | 56 | 65 | 29 | 40.4 | 35.2 | 11.1 | 11.3
5 | CC1(C)CCC[C@]2(C)[C@@H](Cc3ccc(O)cc3O)[C@](C)(O)CC[C@@H]12 | 81 | 91 | 41 | 9 | 37 | 15.2 | 41.7 | 10.2 | 11.9
6 | CC1(C)CCC[C@@]2(C)C1CC[C@@]1(C)Oc3ccc(O)c(Cl)c3C[C@@H]12 (stereo partly specified) | < 60 | < 60 | < 60 | < 60 | < 60 | – | – | – | –
7 | CC(=O)Oc1ccc2c(c1)C[C@@H]1[C@@]3(C)CCCC(C)(C)[C@@H]3CC[C@@]1(C)O2 | < 60 | < 60 | < 60 | < 60 | < 60 | – | – | – | –
8 | CC1(C)CCC[C@]2(C)[C@@H](Cc3c(O)cccc3O)[C@](C)(O)CC[C@@H]12 | 84 | 88 | 49 | 15 | 50 | 26.7 | 29.3 | 13.9 | 16
9 | CC1(C)CCC[C@]2(C)[C@H]3Cc4cc(Oc5ccccn5)ccc4O[C@]3(C)CC[C@@H]12 | < 60 | < 60 | < 60 | < 60 | < 60 | – | – | – | –
10 | CC1(C)CCC[C@]2(C)[C@@H](Cc3cc(C(=O)O)ccc3O)[C@](C)(O)CC[C@@H]12 | 84 | 85 | 56 | 60 | 62 | 22.2 | 22.5 | > 50 | 50
11 | COc1cc2c(cc1OC)O[C@]1(C)CC[C@H]3C(C)(C)CCC[C@]3(C)[C@H]1C2 | 21 | 13 | 29 | 9 | 5 | – | – | – | –
12 | CC1(C)CCC[C@]2(C)[C@H]3Cc4cccc(O)c4O[C@]3(C)CC[C@@H]12 | 22 | 53 | 31 | 21 | 40 | – | – | – | –
13 | CC1(C)CCC[C@]2(C)C3=CC4=CC(=O)C(=O)C=C4O[C@]3(C)CC[C@@H]12 | 37 | 15 | 44 | -2 | 18 | – | – | – | –
